Patent publication US20250177363A1, “SUBSTITUTED IMIDAZOPYRIDINYL COMPOUNDS USEFUL AS INHIBITORS OF TLR9” (Bristol-Myers Squibb Company, priority 2022, published 2025)

Key:
Format in all cases: cell-based
human TLR9 = molecular target: T1, human TLR9 (Homo sapiens, UniProt Q9NR96); assay: TLR9 inhibition reporter assay (HEK-Blue, SEAP); settings: HEK-Blue cells overexpressing human TLR9, ligand ODN2006 200 nM, 22 hour incubation
T1 construct: host or cells: HEK-Blue cells
T1 sequence (Q9NR96 26-1032): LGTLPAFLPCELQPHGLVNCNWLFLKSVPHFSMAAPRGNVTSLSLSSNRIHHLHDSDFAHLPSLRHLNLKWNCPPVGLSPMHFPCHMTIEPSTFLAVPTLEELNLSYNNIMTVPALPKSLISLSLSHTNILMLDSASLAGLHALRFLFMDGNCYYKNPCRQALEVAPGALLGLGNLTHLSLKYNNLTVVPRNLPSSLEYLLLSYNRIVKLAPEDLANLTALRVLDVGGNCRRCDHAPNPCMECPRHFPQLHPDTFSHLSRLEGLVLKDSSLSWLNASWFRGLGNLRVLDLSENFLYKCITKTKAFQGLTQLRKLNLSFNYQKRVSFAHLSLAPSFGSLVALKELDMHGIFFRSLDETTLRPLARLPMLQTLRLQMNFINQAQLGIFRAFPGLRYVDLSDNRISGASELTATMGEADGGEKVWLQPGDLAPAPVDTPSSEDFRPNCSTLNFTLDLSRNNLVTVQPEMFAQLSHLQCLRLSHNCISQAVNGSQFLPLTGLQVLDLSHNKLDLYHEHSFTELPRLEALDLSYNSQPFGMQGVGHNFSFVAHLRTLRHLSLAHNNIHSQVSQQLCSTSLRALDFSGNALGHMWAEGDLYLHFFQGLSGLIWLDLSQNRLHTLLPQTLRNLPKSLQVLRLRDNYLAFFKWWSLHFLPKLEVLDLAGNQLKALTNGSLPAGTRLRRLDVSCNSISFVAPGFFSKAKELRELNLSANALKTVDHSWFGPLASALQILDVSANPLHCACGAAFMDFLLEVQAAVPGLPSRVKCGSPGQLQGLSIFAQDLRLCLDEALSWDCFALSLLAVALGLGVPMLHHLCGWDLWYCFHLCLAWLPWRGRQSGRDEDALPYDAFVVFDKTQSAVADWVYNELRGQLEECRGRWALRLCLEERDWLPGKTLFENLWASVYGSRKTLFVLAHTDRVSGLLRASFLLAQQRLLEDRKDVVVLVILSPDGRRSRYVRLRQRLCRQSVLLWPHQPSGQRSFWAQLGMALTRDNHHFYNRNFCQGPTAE
Method: (§1) TLR7/8/9 Inhibition Reporter Assays
(§2) HEK-Blue™-cells (Invivogen) overexpressing human TLR7. TLR8 or TLR9 receptors were used for screening inhibitors of these receptors using an inducible SEAP (secreted embryonic alkaline phosphatase) reporter gene under the control of the IFN-β minimal promoter fused to five NF-κB and AP-1-binding sites. Cells are seeded into Greiner 384 well plates (15000 cells per well) that are pre dispensed (by ECHO) with testing compounds in DMSO to yield a final dose response concentration range of 0.85 nM-50 μM. After a 60 minute compound pre-treatment in 37 degree incubator, the cells are then stimulated with a TLR7 ligand (gardiquimod at a final concentration of 2.5 μM), TLR8 ligand (R848 at a final concentration of 14.25 μM) or TLR9 ligand (ODN2006 at a final concentration of 200 nM) to activate NF-κB and AP-1 which induce the production of SEAP. After a 22 hour incubation at 37° C., 5% CO2, SEAP levels are determined with the addition of HEK-Blue™ Detection reagent (Invivogen), a cell culture medium that allows for detection of SEAP, according to manufacturer's specifications. The percent inhibition is determined as the % reduction in the HEK-Blue signal present in […].

human TLR7 = molecular target: T2, human TLR7 (Homo sapiens, UniProt Q9NYK1); assay: TLR7 inhibition reporter assay (HEK-Blue, SEAP); settings: HEK-Blue cells overexpressing human TLR7, ligand gardiquimod 2.5 μM, 22 hour incubation
T2 construct: host or cells: HEK-Blue cells
T2 sequence (Q9NYK1 27-1049): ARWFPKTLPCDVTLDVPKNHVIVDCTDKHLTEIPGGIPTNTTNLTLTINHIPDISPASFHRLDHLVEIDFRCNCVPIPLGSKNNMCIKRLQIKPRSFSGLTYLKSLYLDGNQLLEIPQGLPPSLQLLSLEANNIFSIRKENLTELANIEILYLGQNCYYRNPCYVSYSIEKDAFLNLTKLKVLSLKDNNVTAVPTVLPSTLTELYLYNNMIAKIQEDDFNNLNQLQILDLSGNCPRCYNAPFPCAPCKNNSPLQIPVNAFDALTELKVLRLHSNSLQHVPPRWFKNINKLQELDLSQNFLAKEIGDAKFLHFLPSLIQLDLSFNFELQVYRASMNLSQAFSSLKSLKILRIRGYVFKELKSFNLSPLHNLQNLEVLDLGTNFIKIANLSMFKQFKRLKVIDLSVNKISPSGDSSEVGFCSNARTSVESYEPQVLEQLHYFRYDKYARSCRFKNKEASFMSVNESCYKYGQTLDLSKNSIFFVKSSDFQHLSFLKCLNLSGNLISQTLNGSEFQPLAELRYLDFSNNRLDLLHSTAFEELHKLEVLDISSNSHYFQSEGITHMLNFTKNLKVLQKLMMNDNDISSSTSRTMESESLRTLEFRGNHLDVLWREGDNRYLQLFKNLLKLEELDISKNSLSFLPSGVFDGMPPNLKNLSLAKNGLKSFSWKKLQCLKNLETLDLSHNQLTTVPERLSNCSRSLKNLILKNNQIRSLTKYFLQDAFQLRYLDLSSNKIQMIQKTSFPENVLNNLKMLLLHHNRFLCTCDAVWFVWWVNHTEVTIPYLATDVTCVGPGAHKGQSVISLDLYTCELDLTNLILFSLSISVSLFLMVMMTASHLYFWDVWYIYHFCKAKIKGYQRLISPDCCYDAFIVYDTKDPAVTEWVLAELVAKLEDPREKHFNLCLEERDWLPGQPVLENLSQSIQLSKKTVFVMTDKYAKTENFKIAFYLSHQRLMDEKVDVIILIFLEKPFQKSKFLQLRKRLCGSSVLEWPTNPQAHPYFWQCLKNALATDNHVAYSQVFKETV
Method: as §1, §2

human TLR8 = molecular target: T3, human TLR8 (Homo sapiens, UniProt Q9NR97); assay: TLR8 inhibition reporter assay (HEK-Blue, SEAP); settings: HEK-Blue cells overexpressing human TLR8, ligand R848 14.25 μM, 22 hour incubation
T3 construct: host or cells: HEK-Blue cells
T3 sequence (Q9NR97 27-1041): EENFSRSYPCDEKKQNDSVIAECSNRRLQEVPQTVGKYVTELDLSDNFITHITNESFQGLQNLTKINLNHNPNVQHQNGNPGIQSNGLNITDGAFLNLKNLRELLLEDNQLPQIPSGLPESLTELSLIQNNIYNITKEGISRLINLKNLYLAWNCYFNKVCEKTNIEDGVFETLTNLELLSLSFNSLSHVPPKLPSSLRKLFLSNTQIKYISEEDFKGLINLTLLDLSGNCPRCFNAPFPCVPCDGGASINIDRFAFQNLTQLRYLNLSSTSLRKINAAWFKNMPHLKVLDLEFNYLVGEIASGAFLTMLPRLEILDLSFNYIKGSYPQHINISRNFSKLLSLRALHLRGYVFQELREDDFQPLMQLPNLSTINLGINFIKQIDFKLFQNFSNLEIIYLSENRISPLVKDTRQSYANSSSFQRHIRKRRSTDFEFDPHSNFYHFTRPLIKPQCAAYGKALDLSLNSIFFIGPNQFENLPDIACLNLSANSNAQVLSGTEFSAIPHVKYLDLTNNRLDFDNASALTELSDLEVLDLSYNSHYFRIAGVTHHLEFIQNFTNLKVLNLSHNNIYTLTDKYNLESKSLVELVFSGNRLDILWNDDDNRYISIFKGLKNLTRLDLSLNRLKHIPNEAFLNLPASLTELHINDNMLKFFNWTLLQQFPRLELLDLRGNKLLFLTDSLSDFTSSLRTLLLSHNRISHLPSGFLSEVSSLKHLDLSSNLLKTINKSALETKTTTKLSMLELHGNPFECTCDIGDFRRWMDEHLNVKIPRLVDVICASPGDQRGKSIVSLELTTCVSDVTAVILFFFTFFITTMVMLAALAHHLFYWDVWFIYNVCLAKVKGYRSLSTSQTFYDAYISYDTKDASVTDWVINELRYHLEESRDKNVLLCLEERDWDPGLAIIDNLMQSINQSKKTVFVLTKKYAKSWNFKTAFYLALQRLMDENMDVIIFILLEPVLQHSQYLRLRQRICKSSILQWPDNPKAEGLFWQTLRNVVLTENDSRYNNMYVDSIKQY
Method: as §1, §2

Cc1cc(C2CCN(C3CC4CCC(C3)N4CC3CC3)CC2)nc2c1nc(-c1ccc(S(C)(=O)=O)cc1)n2C (single isomer, unassigned) [Example 30, 5-(1-(8-(cyclopropylmethyl)-8-azabicyclo[3.2.1]octan-3-yl)piperidin-4-yl)-3,7-dimethyl-2-(4-(methylsulfonyl)phenyl)-3H-imidazo[4,5-b]pyridine]
IC50 (human TLR9): 60 nM | IC50 (human TLR7): 2900 nM | IC50 (human TLR8): > 50000 nM

Cc1cc(C2CCN(C3CC4CCC(C3)N4CC3CC3)CC2)nc2c1nc(-c1ccc(S(C)(=O)=O)cc1)n2C (single isomer, unassigned) [Example 31, 5-(1-(8-(cyclopropylmethyl)-8-azabicyclo[3.2.1]octan-3-yl)piperidin-4-yl)-3,7-dimethyl-2-(4-(methylsulfonyl)phenyl)-3H-imidazo[4,5-b]pyridine]
IC50 (human TLR9): 240 nM | IC50 (human TLR7): 7200 nM | IC50 (human TLR8): 19000 nM

Cc1cc(C2CCN(C3CC4CCC(C3)N4C3CCOCC3)CC2)nc2c1nc(-c1ccc(S(C)(=O)=O)cc1)n2C (single isomer, unassigned) [Example 34, 3,7-dimethyl-2-(4-(methylsulfonyl)phenyl)-5-(1-(8-(tetrahydro-2H-pyran-4-yl)-8-azabicyclo[3.2.1]octan-3-yl)piperidin-4-yl)-3H-imidazo[4,5-b]pyridine]
IC50 (human TLR9): 37 nM | IC50 (human TLR7): 5700 nM | IC50 (human TLR8): > 50000 nM

Cc1cc(C2CCN(C3CC4CCC(C3)N4C3CCOCC3)CC2)nc2c1nc(-c1ccc(S(C)(=O)=O)cc1)n2C (single isomer, unassigned) [Example 35, 3,7-dimethyl-2-(4-(methylsulfonyl)phenyl)-5-(1-(8-(tetrahydro-2H-pyran-4-yl)-8-azabicyclo[3.2.1]octan-3-yl)piperidin-4-yl)-3H-imidazo[4,5-b]pyridine]
IC50 (human TLR9): 340 nM | IC50 (human TLR7): 7400 nM | IC50 (human TLR8): > 50000 nM

Cc1cc(-c2ccc(CN3CC4(C3)CN(C3CCC3)C4)cc2)nc2c1nc(-c1ccc(S(C)(=O)=O)cc1)n2C1CC1 [Example 1, 5-(4-((6-cyclobutyl-2,6-diazaspiro[3.3]heptan-2-yl)methyl)phenyl)-3-cyclopropyl-7-methyl-2-(4-(methylsulfonyl)phenyl)-3H-imidazo[4,5-b]pyridine]
IC50 (human TLR9): 130 nM | IC50 (human TLR7): 8100 nM | IC50 (human TLR8): 27000 nM

Cc1cc(-c2ccc(CN3CCC(N4CCCC4)CC3)cc2)nc2c1nc(-c1ccc(S(C)(=O)=O)cc1)n2C1CC1 [Example 2, 3-cyclopropyl-7-methyl-2-(4-(methylsulfonyl)phenyl)-5-(4-((4-(pyrrolidin-1-yl)piperidin-1-yl)methyl)phenyl)-3H-imidazo[4,5-b]pyridine]
IC50 (human TLR9): 100 nM | IC50 (human TLR7): 7200 nM | IC50 (human TLR8): 31000 nM

Cc1cc(-c2ccc(CN3CC4(C3)CN(C(C)C)C4)cc2)nc2c1nc(-c1ccc(S(C)(=O)=O)cc1)n2C1CC1 [Example 3, 3-cyclopropyl-5-(4-((6-isopropyl-2,6-diazaspiro[3.3]heptan-2-yl)methyl)phenyl)-7-methyl-2-(4-(methylsulfonyl)phenyl)-3H-imidazo[4,5-b]pyridine]
IC50 (human TLR9): 190 nM | IC50 (human TLR7): 710 nM | IC50 (human TLR8): > 50000 nM

Cc1cc(-c2ccc(CN3CC4(C3)CN(C3CCOCC3)C4)cc2)nc2c1nc(-c1ccc(S(C)(=O)=O)cc1)n2C1CC1 [Example 5, 3-cyclopropyl-7-methyl-2-(4-(methylsulfonyl)phenyl)-5-(4-((6-(tetrahydro-2H-pyran-4-yl)-2,6-diazaspiro[3.3]heptan-2-yl)methyl)phenyl)-3H-imidazo[4,5-b]pyridine]
IC50 (human TLR9): 320 nM | IC50 (human TLR7): 200 nM | IC50 (human TLR8): 260 nM

Cc1cc(-c2ccc(N3CCN(C(C)C)CC3)cc2)nc2c1nc(-c1ccc(S(C)(=O)=O)cc1)n2C [Example 7, 5-(4-(4-isopropylpiperazin-1-yl)phenyl)-3,7-dimethyl-2-(4-(methylsulfonyl)phenyl)-3H-imidazo[4,5-b]pyridine]
IC50 (human TLR9): 1200 nM | IC50 (human TLR7): 29000 nM | IC50 (human TLR8): > 50000 nM

Cc1cc(-c2ccc(N3CCN(CC(C)C)CC3)cc2)nc2c1nc(-c1ccc(S(C)(=O)=O)cc1)n2C [Example 8, 5-(4-(4-isobutylpiperazin-1-yl)phenyl)-3,7-dimethyl-2-(4-(methylsulfonyl)phenyl)-3H-imidazo[4,5-b]pyridine]
IC50 (human TLR9): 1700 nM | IC50 (human TLR7): > 50000 nM | IC50 (human TLR8): > 50000 nM
